Measurements published in patent publication US5474996A, “Pyrimidine derivatives” (Roussel Uclaf, priority 1991, dated 1995).

Molecular target: T1, Angiotensin II Receptor (Rattus norvegicus, UniProt P25095)
T1 construct: A fresh membrane preparation obtained from rat's liver was used; from tissue; host or cells: rat liver, fresh membrane preparation
T1 sequence (P25095 1-359): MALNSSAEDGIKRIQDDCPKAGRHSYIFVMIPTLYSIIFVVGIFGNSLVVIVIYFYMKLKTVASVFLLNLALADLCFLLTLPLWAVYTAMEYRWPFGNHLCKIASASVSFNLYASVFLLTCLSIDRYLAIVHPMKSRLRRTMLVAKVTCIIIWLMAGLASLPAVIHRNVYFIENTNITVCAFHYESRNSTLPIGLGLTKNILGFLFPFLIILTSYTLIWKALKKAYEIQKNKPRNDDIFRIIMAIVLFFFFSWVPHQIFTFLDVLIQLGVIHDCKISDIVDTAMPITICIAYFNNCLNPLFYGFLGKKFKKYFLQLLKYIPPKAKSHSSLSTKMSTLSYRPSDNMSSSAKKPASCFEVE
Assay: Test on the Angiotensin II Receptor: displacement of 125I angiotensin II from a fresh rat liver membrane preparation
Format: binding
Conditions: rat liver membranes; 125I angiotensin II (25,000 DPM/tube); Tris buffer pH 7.4; 25° C. for 150 minutes; 7 concentrations; read-out: 50% inhibiting concentration (IC50), concentration necessary to displace 50% of the radioactivity specifically fixed on the receptor
Description: A fresh membrane preparation obtained from rat's liver was used and the tissue was ground in a polytron in a Tris 50mMpH 7.4 buffer. The grinding was followed by 3 centrifugations at 30,000 g for 15 minutes with intermediate collection of pellets in the Tris buffer pH 7.4. The last pellets were suspended in an incubation buffer (Tris 20 mM, NaCl […], KCl 10 mM, glucose 5 mM, MgCl2 10 mM, PMSF 0.3 mM, bacitracin 0.1 mM, BSA 0.2%). The 2 ml of aliquoted fractions were distributed in hemolysis tubes and ^125 I angiotensin II (25,000 DPM/tube) and the product to be studied were added. The product was first tested at 3×10^-5 M in triplicate. When the product to be tested displaced more than 50% of the radioactivity specifically linked to the receptor, it was tested again in a range of 7 concentrations to determine the concentration which inhibited 50% of the radioactivity specifically linked to the receptor. In this way, the 50% inhibiting concentration was determined.
The non-specific bond was determined by the addition of the product of Example 94 of the European Patent No. 0,253,310, at 10^-5 M (in triplicate). Incubation took place at 25° C. for 150 minutes, followed by returning to a water bath at 0° C. for 5 minutes, vacuum filtration, rinsing with Tris buffer pH 7.4 and counting the radioactivity in the presence of scintilling Triton. […]

IC50: 242 nM
Compound: CCCCc1nc(Cl)c(CC(=O)O)c(Cc2ccc(-c3ccccc3C(=O)O)cc2)n1 [Example 8, 2-butyl-4-[(2'-carboxy-(1,1'-biphenyl)-4-yl)-methyl)-6-chloro-5-pyrimidineacetic acid]
